The values that follow come from patent US6828320B2, “Heterocyclic compounds” (SmithKline Beecham Corporation, priority 1996, dated 2004).

Counter-ions that a name gives are not always drawn. Like-named read-outs stand apart in the source and are kept apart here. Where only a bound is given, the exact number is not on record here.

Test [1] addresses T1, c-erbB-4 (baculovirus expressed, recombinant intracellular domain) (Homo sapiens, UniProt Q15303).
T1 construct: baculovirus expressed, recombinant constructs of the intracellular domains of c-erbB-2 and c-erbB-4; made in house
As to the kind of experiment: Substrate phosphorylation assay, c-erbB-4. Type of test: biochemical. The method, then: (§1) The substrate phosphorylation assays use baculovirus expressed, recombinant constructs of the intracellular domains of c-erbB-2 and c-erbB-4 that are constitutively active and EGFr isolated from solubilised A431 cell membranes. The method measures the ability of the isolated enzymes to catalyse the transfer of the γ-phosphate from ATP onto tyrosine residues in a biotinylated synthetic peptide (Biotin-[…]. […] The reaction is stopped by the addition of EDTA (final concentration 0.15 mM) and a sample is transferred to a streptavidin-coated 96-well plate. The plate is washed and level of phosphotyrosine on the peptide is determined using a Europium-labelled antiphosphotyrosine antibody and quantified with a time-resolved fluorescence technique.

For test [2], the target named is HB4a cell line transformed by over-expression of c-erbB-2 (Homo sapiens, UniProt P04626). Put plainly: Cell proliferation assay, HB4a erbB-2. The format is cell-based. Conditions: 4 days at 37° C., methylene blue staining; read-out: Cell Proliferation HB4a erbB-2. The method, then:
The cell proliferation assay uses an immortalised human breast epithelial cell line (HB4a) which has been transformed by over-expression of c-erbB-2. Growth of these cells in low serum is dependent upon the c-erbB-2 tyrosine kinase activity. […] Cells are plated at 3000/ well in 96-well plates in 0.1 ml medium and allowed to attach overnight. test compound is added in 0.1 ml medium, with a final concentration of 0.5% DMSO, and the plates incubated for 4 days at 37° C. The cells are then examined microscopically for evidence of morphological detransformation and cell mass is estimated by staining with methylene blue and measuring the absorbance at 620 nm. […] Activity against a range of naturally occurring EGFr or c-erbB-2 over-expressing human tumour cell lines (BT474-breast, HN5-head and neck, N87-gastric and Calu3-lung) is assessed with selected compounds by the same methodology.

In test [3] the test system is HB4a cell line transfected with ras. Put plainly: Cell proliferation assay, HB4a ras. The format is cell-based, human. Conditions: Homo sapiens, HB4a, 96 h; 4 days at 37° C., methylene blue staining; general toxicity control; read-out: Cell Proliferation HB4a ras.
Test [4] has as its system HN5-head and neck tumour cell line. As to the kind of experiment: Cell proliferation assay, HN5. Type of test: cell-based, human. Conditions: Homo sapiens, 96 h; same methodology, 4 days. The method, then: (§2) The cell proliferation assay uses an immortalised human breast epithelial cell line (HB4a) which has been transformed by over-expression of c-erbB-2. Growth of these cells in low serum is dependent upon the c-erbB-2 tyrosine kinase activity. The specificity of the effect of the test compounds on tyrosine kinase dependent growth over general toxicity is assessed by comparison to an HB4a cell line which has been transfected with ras. Cells are plated at 3000/ well in 96-well plates in 0.1 ml medium and allowed to attach overnight. test compound is added in 0.1 ml medium, with a final concentration of 0.5% DMSO, and the plates incubated for 4 days at 37° C. The cells are then examined microscopically for evidence of morphological detransformation and cell mass is estimated by staining with methylene blue and measuring the absorbance at 620 nm. The results are shown in Table 1 below as the IC50 values in nM. Activity against a range of naturally occurring EGFr or c-erbB-2 over-expressing human tumour cell lines (BT474-breast, HN5-head and neck, N87-gastric and Calu3-lung) is assessed with selected compounds by the same methodology. The results are also shown in Table 1 below as the IC50 values in nM.

The target of test [5] is T2, c-erbB-2 (baculovirus expressed, recombinant intracellular domain) (Homo sapiens, UniProt P04626).
T2 construct: baculovirus expressed, recombinant constructs of the intracellular domains of c-erbB-2 and c-erbB-4; made in house
Put plainly: Substrate phosphorylation assay, c-erbB-2. Type of test: biochemical. Conditions: read-out: Substrate Phosphorylation erbB-2. The method, then: as §1

In test [6] the test system is Calu3-lung tumour cell line. As to the kind of experiment: Cell proliferation assay, Calu3. Type of test: cell-based, human. Conditions: Homo sapiens, Calu-3, 96 h; same methodology, 4 days. The method, then:
as §2

The target in test [7] is T3, EGFr isolated from solubilised A431 cell membranes (Homo sapiens, UniProt P00533).
T3 construct: EGFr isolated from solubilised A431 cell membranes; endogenous in cells; host or cells: A431 cell membranes (solubilised)
As to the kind of experiment: Substrate phosphorylation assay, EGFr. Type of test: biochemical. The method, then:
as §1

In test [8] the test system is N87-gastric tumour cell line. As to the kind of experiment: Cell proliferation assay, N87. The format is cell-based, human. To be noted: Homo sapiens, 96 h; same methodology, 4 days. The method, then: as §2
The mark [9] stands for this setting: 30 minutes, room temperature, ATP and peptide at Km concentrations.

T1 sequence (Q15303 676-1308 limits assumed): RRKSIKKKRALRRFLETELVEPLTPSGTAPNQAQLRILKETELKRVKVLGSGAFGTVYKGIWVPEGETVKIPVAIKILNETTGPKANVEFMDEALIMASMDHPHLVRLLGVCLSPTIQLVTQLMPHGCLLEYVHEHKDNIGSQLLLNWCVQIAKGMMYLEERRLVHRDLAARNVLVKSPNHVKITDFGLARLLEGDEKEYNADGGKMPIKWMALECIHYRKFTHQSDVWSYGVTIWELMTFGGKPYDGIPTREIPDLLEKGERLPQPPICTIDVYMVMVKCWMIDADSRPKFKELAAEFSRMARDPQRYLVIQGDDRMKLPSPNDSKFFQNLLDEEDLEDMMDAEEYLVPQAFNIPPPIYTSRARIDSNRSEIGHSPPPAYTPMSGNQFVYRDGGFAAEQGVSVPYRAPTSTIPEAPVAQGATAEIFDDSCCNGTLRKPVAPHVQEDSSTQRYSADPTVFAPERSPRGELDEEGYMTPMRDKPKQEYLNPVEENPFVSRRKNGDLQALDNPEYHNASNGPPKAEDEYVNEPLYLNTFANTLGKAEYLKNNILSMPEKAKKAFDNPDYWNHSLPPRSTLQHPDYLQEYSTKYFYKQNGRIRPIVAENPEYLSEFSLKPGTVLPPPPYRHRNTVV
T2 sequence (P04626 676-1255 limits assumed): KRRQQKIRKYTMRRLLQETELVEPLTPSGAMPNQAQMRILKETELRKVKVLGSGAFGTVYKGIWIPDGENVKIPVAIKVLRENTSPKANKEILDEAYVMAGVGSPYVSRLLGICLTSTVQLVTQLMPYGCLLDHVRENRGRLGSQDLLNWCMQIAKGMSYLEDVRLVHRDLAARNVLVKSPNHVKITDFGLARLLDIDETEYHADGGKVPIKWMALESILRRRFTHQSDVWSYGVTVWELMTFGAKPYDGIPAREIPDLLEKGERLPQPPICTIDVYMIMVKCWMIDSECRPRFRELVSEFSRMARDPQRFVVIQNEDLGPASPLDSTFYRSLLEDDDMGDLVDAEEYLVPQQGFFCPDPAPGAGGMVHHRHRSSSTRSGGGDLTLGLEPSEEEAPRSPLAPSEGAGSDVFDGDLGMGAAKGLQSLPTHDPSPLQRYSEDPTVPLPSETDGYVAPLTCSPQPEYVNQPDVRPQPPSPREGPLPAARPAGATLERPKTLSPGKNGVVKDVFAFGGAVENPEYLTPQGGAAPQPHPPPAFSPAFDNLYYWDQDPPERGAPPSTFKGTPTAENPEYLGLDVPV
HB4a cell line transformed by over-expression of c-erbB-2, sequence (P04626 whole entry, change not shown): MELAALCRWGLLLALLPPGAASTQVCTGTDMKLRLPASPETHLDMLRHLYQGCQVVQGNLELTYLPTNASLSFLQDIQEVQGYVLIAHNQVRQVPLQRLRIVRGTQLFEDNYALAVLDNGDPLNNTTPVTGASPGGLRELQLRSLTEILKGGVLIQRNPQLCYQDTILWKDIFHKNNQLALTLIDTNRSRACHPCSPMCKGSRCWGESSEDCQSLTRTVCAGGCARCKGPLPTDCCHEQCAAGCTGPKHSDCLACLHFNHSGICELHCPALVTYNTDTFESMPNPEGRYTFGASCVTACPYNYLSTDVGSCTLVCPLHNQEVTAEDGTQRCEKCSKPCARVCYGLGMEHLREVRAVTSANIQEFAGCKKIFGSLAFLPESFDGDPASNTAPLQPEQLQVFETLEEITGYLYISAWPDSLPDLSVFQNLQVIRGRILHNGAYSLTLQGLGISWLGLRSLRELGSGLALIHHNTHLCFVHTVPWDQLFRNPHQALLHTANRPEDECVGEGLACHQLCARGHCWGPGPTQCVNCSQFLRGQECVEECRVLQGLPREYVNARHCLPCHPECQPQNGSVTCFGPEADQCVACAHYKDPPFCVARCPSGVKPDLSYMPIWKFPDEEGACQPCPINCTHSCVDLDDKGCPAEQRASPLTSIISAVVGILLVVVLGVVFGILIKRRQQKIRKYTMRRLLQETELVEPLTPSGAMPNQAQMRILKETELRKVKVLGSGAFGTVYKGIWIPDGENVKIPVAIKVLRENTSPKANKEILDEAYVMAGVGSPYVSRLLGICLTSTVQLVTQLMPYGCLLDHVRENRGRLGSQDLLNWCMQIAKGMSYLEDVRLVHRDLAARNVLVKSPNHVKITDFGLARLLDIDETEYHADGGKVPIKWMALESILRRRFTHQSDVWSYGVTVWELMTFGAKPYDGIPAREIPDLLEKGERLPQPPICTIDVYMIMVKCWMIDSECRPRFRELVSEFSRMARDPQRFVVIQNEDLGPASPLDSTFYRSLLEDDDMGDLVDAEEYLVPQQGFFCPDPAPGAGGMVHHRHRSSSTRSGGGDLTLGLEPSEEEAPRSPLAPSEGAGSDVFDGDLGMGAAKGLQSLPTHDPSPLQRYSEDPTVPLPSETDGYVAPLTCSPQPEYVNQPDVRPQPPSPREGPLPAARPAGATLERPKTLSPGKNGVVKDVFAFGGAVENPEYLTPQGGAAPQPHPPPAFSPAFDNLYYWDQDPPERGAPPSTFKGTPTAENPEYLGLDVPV
T3 sequence (P00533 25-1210): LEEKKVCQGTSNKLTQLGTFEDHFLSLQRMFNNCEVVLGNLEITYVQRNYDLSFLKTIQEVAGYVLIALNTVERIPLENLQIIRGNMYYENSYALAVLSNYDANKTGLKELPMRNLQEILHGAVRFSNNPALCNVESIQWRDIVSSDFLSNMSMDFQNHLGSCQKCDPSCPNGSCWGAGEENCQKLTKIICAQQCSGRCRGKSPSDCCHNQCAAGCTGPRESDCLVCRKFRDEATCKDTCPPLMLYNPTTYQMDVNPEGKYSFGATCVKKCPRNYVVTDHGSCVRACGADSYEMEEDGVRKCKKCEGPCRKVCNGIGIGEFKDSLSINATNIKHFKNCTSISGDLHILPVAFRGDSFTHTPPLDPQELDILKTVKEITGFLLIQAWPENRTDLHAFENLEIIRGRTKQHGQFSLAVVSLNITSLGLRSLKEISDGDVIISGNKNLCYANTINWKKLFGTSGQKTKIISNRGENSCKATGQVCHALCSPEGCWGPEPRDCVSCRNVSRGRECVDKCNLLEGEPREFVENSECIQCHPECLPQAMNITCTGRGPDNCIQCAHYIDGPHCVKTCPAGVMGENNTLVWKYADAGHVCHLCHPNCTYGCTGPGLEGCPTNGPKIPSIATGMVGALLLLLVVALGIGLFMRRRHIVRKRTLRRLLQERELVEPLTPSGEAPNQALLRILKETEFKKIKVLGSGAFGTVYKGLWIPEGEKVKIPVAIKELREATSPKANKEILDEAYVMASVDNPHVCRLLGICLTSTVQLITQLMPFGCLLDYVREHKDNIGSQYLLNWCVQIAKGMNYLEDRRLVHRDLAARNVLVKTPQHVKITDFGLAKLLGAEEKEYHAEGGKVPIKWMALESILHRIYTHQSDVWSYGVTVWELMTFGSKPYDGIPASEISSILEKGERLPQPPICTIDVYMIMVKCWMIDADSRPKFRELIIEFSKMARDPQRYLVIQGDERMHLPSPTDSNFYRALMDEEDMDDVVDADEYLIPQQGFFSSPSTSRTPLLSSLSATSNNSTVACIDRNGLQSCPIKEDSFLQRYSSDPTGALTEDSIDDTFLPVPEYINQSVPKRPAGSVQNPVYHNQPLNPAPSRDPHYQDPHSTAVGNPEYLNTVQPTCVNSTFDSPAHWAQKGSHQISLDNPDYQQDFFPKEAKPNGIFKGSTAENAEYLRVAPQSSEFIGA

For the compound `c1ccc(COc2ccc(Nc3ncnc4ccc(-c5cccs5)cc34)cc2)cc1` [Example 2, (4-Benzyloxy-phenyl)-(6-(thiophen-2-yl)-quinazolin-4-yl)-amine], the IC50 was 0.5 µM in test [1]; 8.3 µM in test [3]; 26 µM in test [4]; 0.021 µM in test [5]; 4.6 µM in test [6]. The GI50 in test [2] was 1 µM.

Regarding `c1ccc(COc2ccc(Nc3ncnc4ccc(-c5ccc(C6OCCO6)o5)cc34)cc2)cc1` [Example 5], the IC50 was 0.32 µM in test [1]; 19 µM in test [3]; 1.4 µM in test [4]; 0.02 µM in test [5]; 0.78 µM in test [6]. Moreover, in test [2], the GI50 was 0.4 µM.

In the case of `C1=C(c2ccc3ncnc(Nc4ccc(OCc5ccccc5)cc4)c3c2)OCC1` [Example 7, (4-Benzyloxy-phenyl)-(6-(2,3-dihydrofuran-5-yl)-quinazolin-4-yl)-amine], the IC50 in test [1] was determined as 1.5 µM; in test [3] it was 12 µM; in test [4], 5.5 µM; in test [5], 0.036 µM; in test [6], 4.7 µM. For the same compound, in test [2], the GI50 came out at 1.3 µM.

Regarding `CN1CCN(Cc2ccc(-c3ccc4ncnc(Nc5ccc(OCc6ccccc6)cc5)c4c3)o2)CC1` [Example 10], the IC50 in test [1] was 0.78 µM; in test [3], 7.1 µM; in test [4], 2.1 µM; in test [5], 0.052 µM; in test [6], 2.2 µM. Moreover, the GI50 in test [2] amounted to 1.5 µM.

On to `CCN(CCN(C)C)Cc1ccc(-c2ccc3ncnc(Nc4ccc(OCc5ccccc5)cc4)c3c2)o1` [Example 13, N-(5-(4-(4-Benzyloxy-phenylamino)-quinazolin-6-yl)-furan-2-ylmethyl)-N-ethyl-N′,N′-dimethyl-ethane-1,2-diamine], for which the IC50 was determined as 2.3 µM in test [1], 0.3 µM in test [7] (setting [9]), 2.2 µM in test [3] and 0.35 µM in test [5]. Also, the GI50 in test [2] amounted to 0.45 µM.

For `c1ccc(COc2ccc(Nc3ncnc4ccc(-c5ccc(CNc6cccnc6)o5)cc34)cc2)cc1` [Example 14, (4-Benzyloxy-phenyl)-(6-(5-(pyridin-3-ylaminomethyl)-furan-2-yl)quinazolin-4-yl)-amine], the IC50 in test [1] was 1.2 µM; in test [7], 0.2 µM; in test [3] it was 5 µM; in test [5] it was 0.034 µM. Besides, in test [2], the GI50 was found to be 0.68 µM.

As for `c1ccc(COc2ccc(Nc3ncnc4ccc(-c5ccc(CNCC6CCCO6)o5)cc34)cc2)cc1` (stereo not drawn) [Example 15, (4-Benzyloxy-phenyl)-(6-(5-(((tetrahydro-furan-2-ylmethyl)-amino)-methyl)-furan-2-yl)-quinazolin-4-yl)-amine hydrochloride], the IC50 in test [1] stood at 2.3 µM; in test [7] (setting [9]), 0.54 µM; in test [3], 3.2 µM; in test [5], 0.05 µM. For the same compound, the GI50 in test [2] was 2.6 µM.

Regarding `Cc1nnc(-c2ccc3ncnc(Nc4ccc(Oc5ccccc5)cc4)c3c2)o1` [Example 20, (4-Phenoxy-phenyl)-(6-(5-methyl-1,3,4-oxadiazol-2-yl)quinazolin-4-yl)-amine hydrochloride], in test [2], the GI50 was 6.2 µM. For the same compound, the IC50 in test [7] (setting [9]) is 0.14 µM; in test [3], more than 50 µM; in test [5], 0.003 µM.

Regarding `Cc1nnc(-c2ccc3ncnc(Nc4ccc5c(cnn5Cc5ccccc5F)c4)c3c2)o1` [Example 21, (1-(2-Fluorobenzyl)-1H-indazol-5-yl)-(6-(5-methyl-1,3,4-oxadiazol-2-yl)-quinazolin-4-yl-amine hydrochloride], the GI50 in test [2] turned out to be 2.3 µM. Further, the IC50 in test [7] (setting [9]) is 0.028 µM; in test [3] it was more than 50 µM; in test [5], 0.009 µM.

Regarding `Cc1nnc(-c2ccc3ncnc(Nc4ccc5c(cnn5Cc5ccccn5)c4)c3c2)o1` [Example 23, (1-Pyridin-2-ylmethyl)-1H-indazol-5-yl)-(6-(5-methyl-1,3,4-oxadiazol-2-yl)-quinazolin-4-yl)-amine hydrochloride], the GI50 in test [2] was determined as 31 µM. Moreover, the IC50 in test [7] (setting [9]) was 0.032 µM; in test [3], more than 50 µM; in test [5], 0.001 µM.

Regarding `Cc1nnc(-c2ccc3ncnc(Nc4ccc5c(cnn5Cc5cccc(F)c5F)c4)c3c2)o1` [Example 24, (1-(2,3-Difluorobenzyl)-1H-indazol-5-yl)-(6-(5-methyl-1,3,4-oxadiazol-2-yl)quinazolin-4-yl)-amine hydrochloride], the GI50 in test [2] worked out at 17 µM. In addition, the values for the IC50 in test [7] (setting [9]), in test [3] and in test [5] were 0.015 µM, more than 50 µM and 0.002 µM, respectively.

Take `Cc1nnc(-c2ccc3ncnc(Nc4ccc(OCc5ccccc5F)c(Cl)c4)c3c2)o1` [Example 25, (3-Chloro-4-(2-fluoro-benzyloxy)-phenyl)-(6-(5-methyl-1,3,4-oxadiazol-2-yl)-s-quinazolin-4-yl)-amine hydrochloride]: in test [2], the GI50 stood at 0.75 µM. The IC50 in test [7] (setting [9]) was 0.022 µM; in test [3] it was more than 50 µM; in test [5] it was 0.015 µM.

Regarding `Cc1nnc(-c2ccc3ncnc(Nc4ccc(OCc5cccc(F)c5)c(Cl)c4)c3c2)o1` [Example 26, (3-Chloro-4-(3-fluoro-benzyloxy)-phenyl)-(6-(5-methyl-1,3,4-oxadiazol-2-yl)-quinazolin-4-yl)-amine hydrochloride], the GI50 in test [2] stood at 0.65 µM. For the same compound, the IC50 in test [7] (setting [9]) was 0.018 µM; in test [3] it was more than 50 µM; in test [5] it was 0.007 µM.

As to `Cc1nnc(-c2ccc3ncnc(Nc4ccc(OCc5ccccc5)cc4)c3c2)o1` [Example 27, (4-Benzyloxy-phenyl)-(6-(5-methyl-1,3,4-oxadiazol-2-yl)-quinazolin-4-yl)-amine hydrochloride], in test [2], the GI50 is 6.5 µM. In addition, the IC50 in test [7] (setting [9]) stood at 0.047 µM; in test [3], 50 µM; in test [5] it was 0.01 µM.

For `Cc1nnc(-c2ccc3ncnc(Nc4ccc(OCc5ccccc5F)cc4)c3c2)o1` [Example 28, (4-(2-Fluoro-benzyloxy)-phenyl)-(6-(5-methyl-1,3,4-oxadiazol-2-yl)-quinazolin-4-yl)-amine hydrochloride], the GI50 in test [2] turned out to be 5.3 µM. The IC50 in test [7] (setting [9]) is 0.05 µM; in test [3], more than 50 µM; in test [8], 8.2 µM; in test [5], 0.007 µM.

Turning to `Cc1nnc(-c2ccc3ncnc(Nc4ccc(S(=O)(=O)c5ccccc5)cc4)c3c2)o1` [Example 30, (4-Benzenesulphonyl-phenyl)-(6-(5-methyl-1,3,4-oxadiazol-2-yl)-quinazolin-4-yl)-amine hydrochloride], the GI50 in test [2] was 5.4 µM. Also, the IC50 in test [7] (setting [9]) amounted to 0.038 µM; in test [3], 50 µM; in test [5], 0.006 µM; in test [6] it was 18 µM.

For the compound `Cn1cncc1-c1ccc2ncnc(Nc3ccc4c(cnn4Cc4ccccc4)c3)c2c1` [Example 38, (1-Benzyl-1H-indazol-5-yl)-(6-(3-methyl-3H-imidazol-4-yl)-quinazolin-4-yl)-amine], the IC50 came to 0.52 µM in test [1], 0.14 µM in test [7] (setting [9]) and 0.088 µM in test [5].

`c1ccc(Cn2ncc3cc(Nc4ncnc5ccc(-c6noc(Cc7cccnc7)n6)cc45)ccc32)cc1` [Example 62]: in test [2], the GI50 worked out at 0.5 µM. Besides, the results for the IC50 in test [7] (setting [9]), in test [3] and in test [5] were 0.013 µM, 3.7 µM and 0.1 µM, respectively.
